The record followed here is patent publication US6610314B2, “Antimicrobial formulations” (Kimberly-Clark Worldwide, Inc., priority 2001, dated 2003).

Where only a bound is given, the exact number is not on record here.

One data set has as its system Human stratum corneum. The settings on record: tape biopsies soaked 30 minutes at room temperature; against purified water controls; tested in triplicate; Sulfate.
Data set [1] deals with Escherichia coli (ATCC 8739). The data set can be described thus: Alamar Blue reduction biocidal assay, 5 minute exposure. The class given is cell-based. The settings on record: for IC50: Escherichia coli, ATCC8739, ATCC 8739, 5 min, read-out: 50% Inhibitory Concentration (IC50), E. coli, 50% inhibition of Alamar Blue reduction. Here is the method: (§1) In this Example, the antimicrobial efficacy (in terms of IC50 data) of several different formulations against Staphylococcus aureus, Staphylococcus epidermidis, and Escherichia coli was evaluated. The formulations tested comprised a formulation based upon the present invention as well as several other formulations comprised of various organic acids and/or surfactants, as well as surfactants alone. Microorganism Preparation: Lyophilized cultures of Escherichia coli (ATCC 8739), Staphylococcus aureus (ATCC 6538), and Staphylococcus epidermidis (ATCC 12,228) were obtained from the American Type Culture Collection (ATCC) (Rockville, Md.). All three cultures were reconstituted according to ATCC specifications. Aliquots (0.5 mL) of reconstituted 24 hour broth growth were frozen and held at −80° C. until needed. Working cultures were prepared weekly by streaking a loop of frozen culture onto tryptic soy agar plates (TSA) (Becton Dickinson Microbiology Systems, Cockeysville, Md.) and then incubating overnight at 37° C. After incubation, the cultures were held at 4° C. for not more than about 5 days. One day prior to testing, a fresh TSA plate was prepared with a sterile swab to achieve a lawn of growth and incubated at 37° C. for about 24 hours. […] Cell concentrations were determined in triplicate by taking optical density readings of a sample (200 microliters) with a ThermoMax microplate reader spectrophotometer (Molecular Devices) at 650 nm. From a standard curve the appropriate volume of the PBW containing the cells was determined to prepare 1.1×10^9 CFU/mL in the PBW. Exact cell numbers were confirmed by spread plating on TSA and incubating at 37° C. Assay Protocol: To all wells of a Microflour®2 96 well microtiter plate (8 Rows by 12 Columns) (Dynex Technologies, Chantilly, Va.) was added 25 microliters of filtered, sterilized water (Millipore Continental Water Systems, Bedford Mass.). […] After mixing, 25 microliters was transferred from each well in Row A to its corresponding well in Row B to produce a new 50 microliter mixture of sample formulation and water having one half the concentration of sample formulation as that of Row A. The Row B mixtures were aspirated 3 times to thoroughly mix the sample formulation and water combination. These serial dilutions continued down the Rows until reaching Row G (for a total of 6 dilutions from the original plates in Row A). After thorough mixing of Row G well contents, 25 microliters of each well in Row G (a total of 12) was discarded to produce a Row G having 12 columns each containing 25 microliters. […] After serial dilution, bacterial cells were introduced into the wells. […] In columns 4, 5, and 6 of each Row, 25 microliters (about 2.75×10^7 cells) of Staphylococcus epidermidis as prepared above was introduced and mixed. In columns 7, 8, and 9 of each Row, 25 microliters (about 2.75×10^7 cells) of Escherichia coli as prepared above was introduced and mixed. The sample formulations as prepared above were appropriately diluted (if necessary) prior to the introduction of the sample formulations into Row A. The dilutions were made such that, after the sample formulation was introduced into Row A, and after the cells were introduced into Row A (i.e., after reducing the initial concentration of the sample formulation by 50% two times), the initial concentrations were as follows: After the addition of the cells, incubation proceeded (5 minutes) at room temperature. After the incubation period, a 1.6 M phosphate buffer (50 microliters) was added to all wells to neutralize the biocide. Then, 3×Letheen broth (50 microliters) (Difco Laboratories, Detroit, Mich.) and Alamar Blue (25 microliters at room temperature) (AccuMed International, Westlake, Ohio) were added to each well. A positive control was also utilized in the experiment. The positive control consisted of adding sterile Milli-Q water to the wells in place of sample formulation. […]
(In general: The colour change of resazurin is a common sign of viable cells or microbes.)

Data set [2] has as its system Staphylococcus aureus (ATCC 6538). The description is as above. The data set is classed as cell-based. The settings on record: for IC50: Staphylococcus aureus, ATCC6538, 5 min, read-out: 50% Inhibitory Concentration (IC50), S. aureus, 50% inhibition of Alamar Blue reduction; for IC50 / 50% Inhibitory Concentration (IC50), S. aureus: 5 minutes incubation at room temperature; for 50% Inhibitory Concentration (IC50), S. aureus: 50% inhibition of Alamar Blue reduction. Here is the method:
as §1

For data set [3], the system named is Staphylococcus epidermidis (ATCC 12,228). Described as above. The class given is cell-based. The settings on record: for IC50: Staphylococcus epidermidis, ATCC12, 5 min, read-out: 50% Inhibitory Concentration (IC50), S. epidermidis, 50% inhibition of Alamar Blue reduction. As to the method:
as §1

The mark [4] stands for this setting: 5 minutes incubation at room temperature.
Setting [5] is: 50% inhibition of Alamar Blue reduction, 5 minutes incubation at room temperature, listed as #4, sulfate.

Method for Human stratum corneum: Skin mildness was evaluated by measuring the damage caused by the biocide on the outer portion of the stratum corneum, and specifically the removal of the lipid component of the stratum corneum.
Human stratum corneum was harvested from adult legs using D-Squame tape biopsies (Cuderm Corporation, Dallas Tex.). Each biopsy harvested consisted of about 7 to 8 pulls from multiple sites on a subject's lower leg. After harvesting, the tapes containing the biopsies were soaked in the test biocide (2 mL) in covered six well tissue cultured dishes for 30 minutes at room temperature. Each biocide formulation was tested in triplicate in adjacent wells.
After soaking the tape strips in the biocide, the tape strips were removed and washed for 3 minutes with cold tap water, and dried at room temperature. After drying, the tape strips containing the biopsies were completely immersed in fushin-toluidine blue dye (Polychrome Multiple Stain, PMS: Delasco, Council Bluff, Iowa.) The immersion continued for 3 minutes after which the tape strips were removed and washed for 3 minutes in cold tap water. After washing, the tape strips were allowed to dry completely at room temperature.
The color of the dried samples was measured by color reflectance using a Minolta CR 5000 (Minolta, Osaka, Japan) spectrophotometer. The color measurements recorded the luminance (L*) and chromaticity through Chroma C* described by the equation (a^*2+b^*2)^½. The color differentials between test materials and controls were calculated according to: [(ΔL*)^2+(ΔC*)^2]^1/2=ΔE*ab. The measurements were taken against controls which were purified water.

`CCCCCCCCCCCCOS(=O)(=O)[O-].[Na+]` [Formulation 5, Sodium Dodecyl Sulfate]: in the data set on Human stratum corneum, the “ΔE*ab (color differential of dye-stained stratum corneum biopsies)” value amounted to 20.76.

In the case of `O=C(O)CC(O)(CC(=O)O)C(=O)O` [Biocide #1, Citric Acid], the IC50 is above 6300 µg/mL in data set [1] (setting [4]), 2200 µg/mL in data set [2] and 710 µg/mL in data set [3] (setting [4]).

Take `CCCCCCCCCCCCOS(=O)(=O)[O-].[Na+]` [Formulation 4, Sodium Dodecyl Sulfate]: in the data set on Human stratum corneum, the “ΔE*ab (color differential of dye-stained stratum corneum biopsies)” value stood at 34.41.

Take `O=C(O)CC(O)C(=O)O` (stereo not drawn) [Biocide #2, Malic Acid]: the IC50 in data set [1] (setting [4]) turned out to be 6000 µg/mL; in data set [2], 1300 µg/mL; in data set [3] (setting [4]), 240 µg/mL.

Take `CCCCCCCCCCCCOS(=O)(=O)[O-].[Na+]` [Formulation 6, Sodium Dodecyl Sulfate]: in the data set on Human stratum corneum, the “ΔE*ab (color differential of dye-stained stratum corneum biopsies)” value came out at 3.36.

Consider `CCCCCCCCCCCCOS(=O)(=O)[O-].[Na+]` [Biocide #4, sodium dodecyl sulfate], for which the “inhibition in words, E. coli” value in data set [1] is given as “exhibited inhibition”. The “50% Inhibitory Concentration (IC50), E. coli” value in data set [1] (setting [5]) was 79500 µg/mL. In addition, the IC50 is around 79000 µg/mL in data set [1] (setting [4]) and below 1000 µg/mL in data set [3] (setting [4]). Besides, in data set [2], the “inhibition / biocidal activity in words, S. aureus” value is “exhibited inhibition”. The “50% Inhibitory Concentration (IC50), S. aureus” value is 480 µg/mL in data set [2] (listed as #4, sulfate) and “less than 1 g/L” in data set [2] (listed as sodium dodecyl sulfate, sulfate). For the same compound, in data set [3], the “inhibition in words, S. epidermidis” value is recorded as “exhibited inhibition”. Also, in data set [3] (setting [5]), the “50% Inhibitory Concentration (IC50), S. epidermidis” value was 950 µg/mL.
